The target of the assay is human apotransferrin (<0.7% iron-saturated) (Homo sapiens, UniProt P02787). As to the kind of experiment: Control incubation with human apotransferrin (<0.7% iron-saturated). It is filed as biochemical. Conditions: apotransferrin 38 mg/ml. As to the method:
A. 40% Iron-Saturated Human Transferrin. To assess the capacity of the 3 different desferri-Exochelins to remove iron from 40% iron-saturated human transferrin, each of them was incubated for 1, 3, and 24 hours with 40% iron-saturated transferrin such that the ratio of Fe^3+: desferri-Exochelin equaled 10:1. The incubation was carried out in PBS, pH 7.4. Afterwards, the Exochelin and transferrin were separated from each other by centrifugation through a 10,000 dalton cut-off filter. The transferrin (mass 76,000 daltons) was completely excluded by this filter whereas 85% of the Exochelin (mass<1,000) was recovered in the filtrate. To determine the total amount of exochelin recovered, the exochelin in the filtrate was saturated with a 20:1 molar excess of ferric ammonium citrate and subjected to reverse-phase HPLC as described above. To determine the amount of iron-saturated Exochelin in the filtrate at each time point, the filtrate was subjected to reverse-phase HPLC without the addition of iron. The % iron-saturation was calculated as follows: [formula]
C. Apotransferrin (<0.7% Iron-Saturated Human Transferrin). As a control, the three desferri-exochelins were incubated for 3 h and 24 h with human apotransferrin (<0.7% iron-saturated) at a concentration of 38 mg/ml, the same concentration of protein as in the study utilizing 92% iron-saturated transferrin in B above. None of the desferri-exochelins acquired appreciable amounts of iron (Table 6).

The mark [1] stands for this setting: listed as Synthetic Desferri-Exochelin 772SM(R).
[2] abbreviates: listed as Synthetic Desferri-Exochelin 772SM(S).

Each structure is given as a SMILES string.

human apotransferrin (<0.7% iron-saturated), sequence (P02787 20-698): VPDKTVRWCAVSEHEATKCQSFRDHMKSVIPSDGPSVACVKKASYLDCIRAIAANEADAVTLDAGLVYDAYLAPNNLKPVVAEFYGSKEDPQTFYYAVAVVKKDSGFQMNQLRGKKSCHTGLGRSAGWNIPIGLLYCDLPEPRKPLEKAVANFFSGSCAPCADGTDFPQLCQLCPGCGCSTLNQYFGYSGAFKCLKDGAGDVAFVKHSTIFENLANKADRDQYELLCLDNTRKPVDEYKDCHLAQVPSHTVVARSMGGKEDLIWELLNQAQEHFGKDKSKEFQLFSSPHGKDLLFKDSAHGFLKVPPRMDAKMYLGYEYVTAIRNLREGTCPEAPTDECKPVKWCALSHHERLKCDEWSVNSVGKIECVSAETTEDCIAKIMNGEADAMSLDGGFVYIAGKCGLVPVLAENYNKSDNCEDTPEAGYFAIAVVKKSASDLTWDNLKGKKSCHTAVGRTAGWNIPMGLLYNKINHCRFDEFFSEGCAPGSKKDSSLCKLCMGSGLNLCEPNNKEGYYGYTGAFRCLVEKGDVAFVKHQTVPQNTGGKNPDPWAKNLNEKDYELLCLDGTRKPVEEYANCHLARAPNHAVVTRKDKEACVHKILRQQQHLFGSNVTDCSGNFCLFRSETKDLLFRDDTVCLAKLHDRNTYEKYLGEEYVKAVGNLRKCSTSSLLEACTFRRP

Turning to `COC(=O)CCCCCC(=O)N(O)CCCCC(NC(=O)C1COC(c2ccccc2O)=N1)C(=O)OC(C)CC(=O)NC1CCCCN(O)C1=O` [Synthetic 772SM(R), Exochelin 772SM(R)], under setting [1], the “Iron-Saturation 0 h” value stood at 1.1%, the “Iron-Saturation 3 h” value was found to be 5.2% and the “Iron-Saturation 24 h” value came to 6.9%.

With `COC(=O)CCCCCC(=O)N(O)CCCCC(NC(=O)C1COC(c2ccccc2O)=N1)C(=O)OC(C)CC(=O)NC1CCCCN(O)C1=O` [Synthetic 772SM(S), Exochelin 772SM(S)], under setting [2], the “Iron-Saturation 0 h” value is recorded as 1.0%, the “Iron-Saturation 3 h” value turned out to be 5.0% and the “Iron-Saturation 24 h” value was 4.1%.

The values are drawn from patent US6335443B1, “Chemical synthesis of exochelins” (Keystone Biomedical, Inc., priority 1998, dated 2002).
